Test results published in patent US20110160167A1, “Steroid Derivatives Acting As Glucocorticosteroid Receptor Agonists” (AstraZeneca AB, priority 2007, published 2011).

molecular target: T1, recombinant human GR (Homo sapiens, UniProt P04150); experiment: Human Glucocorticoid Receptor (GR) Assay (fluorescence polarization, Panvera/Invitrogen kit); settings: GS Red tracer, 2 hours at room temperature, 100% control 10 μM Dexamethasone, read-out: Inhibition of GR binding, IC50
T1 construct: purchased Panvera/Invitrogen P2812 (kit P2893)
T1 sequence (P04150 1-777): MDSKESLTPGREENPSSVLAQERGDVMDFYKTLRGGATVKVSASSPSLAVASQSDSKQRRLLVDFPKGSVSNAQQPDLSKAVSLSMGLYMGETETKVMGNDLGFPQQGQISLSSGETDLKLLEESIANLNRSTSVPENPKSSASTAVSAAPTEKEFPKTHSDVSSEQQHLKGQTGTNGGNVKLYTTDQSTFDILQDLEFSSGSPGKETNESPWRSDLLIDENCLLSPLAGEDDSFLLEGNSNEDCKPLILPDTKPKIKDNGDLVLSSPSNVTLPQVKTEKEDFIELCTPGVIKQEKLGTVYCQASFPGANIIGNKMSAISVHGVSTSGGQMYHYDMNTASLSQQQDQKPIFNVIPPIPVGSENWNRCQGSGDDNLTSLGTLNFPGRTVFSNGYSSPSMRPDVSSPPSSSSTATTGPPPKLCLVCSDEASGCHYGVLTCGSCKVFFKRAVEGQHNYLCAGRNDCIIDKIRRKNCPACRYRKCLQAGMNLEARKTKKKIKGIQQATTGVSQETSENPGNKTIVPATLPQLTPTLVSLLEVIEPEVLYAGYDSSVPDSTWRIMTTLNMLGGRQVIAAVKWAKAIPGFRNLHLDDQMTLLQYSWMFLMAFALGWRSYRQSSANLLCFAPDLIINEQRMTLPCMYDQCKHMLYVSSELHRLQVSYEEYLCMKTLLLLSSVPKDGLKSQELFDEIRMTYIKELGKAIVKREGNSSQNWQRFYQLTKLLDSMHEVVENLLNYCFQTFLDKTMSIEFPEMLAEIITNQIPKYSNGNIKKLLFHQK
Experimental: Human Glucocorticoid Receptor (GR) Assay The assay is based on a commercial kit from Panvera/Invitrogen (Part number P2893). The assay technology is fluorescence polarization. The kit utilises recombinant human GR (Panvera, Part number P2812), a Fluoromone™ labelled tracer (GS Red, Panvera, Part number P2894) and a Stabilizing Peptide 10× (Panvera, Part number P2815). The GR and Stabilizing Peptide reagents are stored at −70° C. while the GS Red is stored at −20° C. Also included in the kit are 1M DTT (Panvera, Part number P2325, stored at −20° C.) and GR Screening buffer 10× (Panvera, Part number P2814, stored at −70° C. initially but once thawed stored at room temperature). Avoid repeated freeze/thaws for all reagents. The GR Screening buffer 10× comprises 100 mM potassium phosphate, 200 mM sodium molybdate, 1 mM EDTA and 20% DMSO. Test compounds (1 μL) and controls (1 μL) in 100% DMSO were added to black polystyrene 384-well plates (Greiner low volume black flat-bottom, part number 784076). 0% control was 100% DMSO and 100% control was 10 μM Dexamethasone. Background solution (8 μL; assay buffer 10×, Stabilizing Peptide, DTT and ice cold MQ water) was added to the background wells. GS Red solution (7 μL; assay buffer 10×, Stabilizing Peptide, DTT, GS Red and ice cold water) was added to all wells except background wells. GR solution (7 μL; assay buffer 10×, Stabilizing Peptide, DTT, GR and ice cold water) was added to all wells. The plate was sealed and incubated in a dark at room temperature for 2 hours. The plate was read in an Analyst plate reader (LJL Biosystems/Molecular Devices Corporation) or other similar plate reader capable of recording fluorescence polarization (excitation wavelength 530 nm, emission wavelength 590 nm and a dichroic mirror at 561 nm).

Row | IC50 [nM] | Structure (SMILES)
1 | 42 | CCC[C@@H]1O[C@@H]2C[C@H]3[C@@H]4CCC5=Cc6c(cnn6-c6ccc(F)c(CNCCO)c6)C[C@]5(C)[C@H]4[C@@H](O)C[C@]3(C)[C@]2(C(=O)CO)O1 [Example 15, 1-[(4aR,4bS,5S,6aS,6bS, 8R,9aR,10aS,10bS)-1-(4-fluoro-3-{[(2-hydroxyethyl)amino]-methyl}phenyl)-5-hydroxy-4a,6a-dimethyl-8-propyl-4,4a, 4b,5,6,6a,9a,10,- 10a,10b,11,12-dodecahydro [1,3]dioxolo-[3′,4′]cyclopenta[1′,2′:5,6]naphtho[1,2-f]indazol-6b(1H)-yl]-2-hydroxyethanone trifluoroacetic acid]
2 | 3.1 | CCC[C@@H]1O[C@@H]2C[C@H]3[C@@H]4CCC5=Cc6c(cnn6-c6ccc(F)c(CO)c6)C[C@]5(C)[C@H]4[C@@H](O)C[C@]3(C)[C@]2(C(=O)CO)O1 [Example 16, 1-[(4aR,4bS,5S,6aS,6bS,8R,9aR,10aS,10bS)-1-[4-Fluoro-3-(hydroxymethyl)phenyl]-5-hydroxy-4a,6a-dimethyl-8-propyl-4,4a,4b,5,6,6a,9a,10,10a,10b,11,12-dodecahydro[1,3]dioxolo[3′,4′]cyclopenta[1′,2′:5,6]naphtho[1,2-f]indazol-6b(1H)-yl]-2-hydroxyethanone]
3 | 6.6 | CCC[C@H]1O[C@@H]2C[C@H]3[C@@H]4CCC5=Cc6c(cnn6-c6ccc(F)c(CO)c6)C[C@]5(C)[C@H]4[C@@H](O)C[C@]3(C)[C@]2(C(=O)CO)O1 [Example 17, 1-[(4aR,4bS,5S,6aS,6bS,8S,9aR,10aS,10bS)-1-[4-Fluoro-3-(hydroxymethyl)phenyl]-5-hydroxy-4a,6a-dimethyl-8-propyl-4,4a,4b,5,6,6a,9a,10,10a,10b,11,12-dodecahydro[1,3]dioxolo[3′,4′]cyclopenta[1′,2′:5,6]naphtho[1,2-f]indazol-6b(1H)-yl]-2-hydroxyethanone]
4 | 5.5 | CC1(C)O[C@@H]2C[C@H]3[C@@H]4CCC5=Cc6c(cnn6-c6ccc(F)c(CO)c6)C[C@]5(C)[C@H]4[C@@H](O)C[C@]3(C)[C@]2(C(=O)CO)O1 [Example 21, 1-[(4aR,4bS,5S,6aS,6bS,9aR,10aS,10bS)-1-[4-Fluoro-3-(hydroxymethyl)phenyl]-5-hydroxy-4a,6a,8,8-tetramethyl-4,4a,4b,5,6,6a,9a,10,10a,10b,11,12-dodecahydro[1,3]dioxolo[3′,4′]cyclopenta[1′,2′:5,6]naphtho[1,2-f]indazol-6b(1H)-yl]-2-hydroxyethanone]
5 | 5.9 | CCC[C@H]1O[C@@H]2C[C@H]3[C@@H]4CCC5=Cc6c(cnn6-c6ccc(F)c(C(=O)OC)c6)C[C@]5(C)[C@H]4[C@@H](O)C[C@]3(C)[C@]2(C(=O)CO)O1 [Example 23, Methyl 2-fluoro-5-[(4aR,4bS,5S,6aS,6bS,8S,9aR,10aS,10bS)-6b-glycoloyl-5-hydroxy-4a,6a-dimethyl-8-propyl-4a,4b,5,6,6a,6b,9a,10,10a,10b,11,12-dodecahydro[1,3]dioxolo[3′,4′]cyclopenta[1′,2′:5,6]naphtho[1,2-f]indazol-1(4H)-yl]benzoate]
6 | 3.8 | CC1(C)O[C@@H]2C[C@H]3[C@@H]4C=CC5=Cc6c(cnn6-c6ccc(F)cc6)C[C@]5(C)[C@H]4[C@@H](O)C[C@]3(C)[C@]2(C(=O)CO)O1 [Example 24, 1-[(4aR,4bS,5S,6aS,6bS,9aR,10aS,10bS)-1-(4-Fluorophenyl)-5-hydroxy-4a,6a,8,8-tetramethyl-4,4a,4b,5,6,6a,9a,10,10a,10b-decahydro[1,3]dioxolo[3′,4′]cyclopenta-[1′,2′:5,6]naphtho[1,2-f]indazol-6b(1H)-yl]-2-hydroxyethanone]

Continued, compound first:

Row | Structure (SMILES) | IC50 [nM]
7 | CCC[C@@H]1O[C@@H]2C[C@H]3[C@@H]4CCC5=Cc6c(cnn6-c6ccc(F)c(CN7CCC(CO)CC7)c6)C[C@]5(C)[C@H]4[C@@H](O)C[C@]3(C)[C@]2(C(=O)CO)O1 [Example 13, 1-[(4aR,4bS,5S,6aS,6bS, 8R,9aR,10aS,10bS)-1-(4-fluoro-3-{[4-(hydroxymethyl)piperidin-1-yl]methyl}phenyl)-5-hydroxy-4a,6a-dimethyl-8-propyl-4,4a,4b,5,6,6a,9a,10, 10a,10b,11,12-dodecahydro[1,3]dioxolo [3′,4′]cyclopenta [1′,2′:5,6]naphtho[1,2-f]indazol-6b(1H)-yl]-2-hydroxyethanone trifluoroacetic acid] | 32
8 | CCC[C@H]1O[C@@H]2C[C@H]3[C@@H]4CCC5=Cc6c(cnn6-c6ccc(F)c(CN7CCC(CO)CC7)c6)C[C@]5(C)[C@H]4[C@@H](O)C[C@]3(C)[C@]2(C(=O)CO)O1 [Example 14, 1-[(4aR,4bS,5S,6aS,6bS, 8S,9aR,10aS,10bS)-1-(4-fluoro-3-{[4-(hydroxymethyl)-piperidin-1-yl]methyl}phenyl)-5-hydroxy-4a,6a-dimethyl-8-propyl-4,4a,4b,5,6,6a,9a,10, 10a,10b,11,12-dodecahydro[1,3]dioxolo [3′,4′]cyclopenta [1′,2′:5,6]naphtho[1,2-f]indazol-6b(1H)-yl]-2-hydroxyethanone trifluoroacetic acid] | 47
9 | CCC[C@@H]1O[C@@H]2C[C@H]3[C@@H]4CCC5=Cc6c(cnn6-c6ccc(F)cc6)C[C@]5(C)[C@H]4[C@@H](O)C[C@]3(C)[C@]2(C(=O)CO)O1 [Example 18, 1-[(4aR,4bS,5S,6aS,6bS,8R,9aR,10aS,10bS)-1-(4-Fluorophenyl)-5-hydroxy-4a,6a-dimethyl-8-propyl-4,4a,4b,5,6,6a,9a,10,10a,10b,11,12-dodecahydro[1,3]dioxolo[3′,4′]-cyclopenta[1′,2′:5,6]naphtho[1,2-f]indazol-6b(1H)-yl]-2-hydroxyethanone] | 2.3
10 | CCC[C@H]1O[C@@H]2C[C@H]3[C@@H]4CCC5=Cc6c(cnn6-c6ccc(F)cc6)C[C@]5(C)[C@H]4[C@@H](O)C[C@]3(C)[C@]2(C(=O)CO)O1 [Example 19, 1-[(4aR,4bS,5S,6aS,6bS,8S,9aR,10aS,10bS)-1-(4-Fluorophenyl)-5-hydroxy-4a,6a-dimethyl-8-propyl-4,4a,4b,5,6,6a,9a,10,10a,10b,11,12-dodecahydro[1,3]dioxolo-[3′,4′]cyclopenta[1′,2′:5,6]naphtho[1,2-f]indazol-6b(1H)-yl]-2-hydroxyethanone] | 2.7
11 | CC1(C)O[C@@H]2C[C@H]3[C@@H]4CCC5=Cc6c(cnn6-c6ccc(F)cc6)C[C@]5(C)[C@H]4[C@@H](O)C[C@]3(C)[C@]2(C(=O)CO)O1 [Example 20, 1-[(4aR,4bS,5S,6aS,6bS,9aR,10aS,10bS)-1-(4-Fluorophenyl)-5-hydroxy-4a,6a,8,8-tetramethyl-4,4a,4b,5,6,6a,9a,10,10a,10b,11,12-dodecahydro[1,3]dioxolo-[3′,4′]cyclopenta[1′,2′:5,6]naphtho[1,2-f]indazol-6b(1H)-yl]-2-hydroxyethanone] | 1.3
12 | CCC[C@@H]1O[C@@H]2C[C@H]3[C@@H]4CCC5=Cc6c(cnn6-c6ccc(F)c(C(=O)OC)c6)C[C@]5(C)[C@H]4[C@@H](O)C[C@]3(C)[C@]2(C(=O)CO)O1 [Example 22, Methyl 2-fluoro-5-[(4aR,4bS,5S,6aS,6bS,8R,9aR,10aS,10bS)-6b-glycoloyl-5-hydroxy-4a,6a-dimethyl-8-propyl-4a,4b,5,6,6a,6b,9a,10,10a,10b,11,12-dodecahydro[1,3]dioxolo[3′,4′]cyclopenta[1′,2′:5,6]naphtho[1,2-f]indazol-1(4H)-yl]benzoate] | 5.9
